According to patent US11661404B2, “Prodrug compounds activated by AKR1C3 and their use for treating hyperproliferative disorders” (priority 2018, dated 2023):
Read-outs that look alike come from different tables or passages of the source.

Tests used:
[1] = test system: wild-type HCT116 colon cancer cells; assay: Anti-proliferative IC50 assay (SRB), wild-type HCT116; type: cell-based, human
Excerpt: (§1) The cellular cytotoxicity of compounds of the invention resulting from AKR1C3-dependent metabolism of the compounds can readily be observed in anti-proliferative IC50 testing in isogenic cell lines that have been engineered to over-express human AKR1C3, relative to their wild-type counterparts that have been selected for their comparatively low levels of endogenous AKR1C3 expression (by Western blot analysis). The direct role of AKR1C3 in metabolism and cytotoxicity of the compounds is further supported for selected examples by repeat anti-proliferative experiments in the presence of a potent and selective small molecule inhibitor of AKR1C3, SN34037 (Flanagan et al., Bioorganic & Medicinal Chemistry (2014), 22(3), 967-977).
(§2) Four hundred cells were seeded in a volume of 100 μL in each well of a 96-well plate. The cells were left in a humidified incubator (37° C., 5% CO2) for 2 hours in order to enable attachment to the surface of the wells prior to compound addition. All compounds were prepared as stocks in DMSO and stored at −80° C. Frozen stocks of compounds were thawed immediately prior to addition to cells. Working solutions of each compound were made in α-MEM+5% FBS (v/v) at 3 times the required final concentration for the top well. The final concentration of DMSO in the α-MEM solution was ensured to not exceed 1% of the total volume. 50 μL of the working solution was added to the top wells (in duplicates) and gently mixed. The solubility of some compounds precluded the working solution in α-MEM to be 3 times the desired top well concentration. […] A 3-fold serial dilution was carried out along the plate starting from the top well. The first column of wells on the plate served as blanks (containing α-MEM+FBS) and the second column served as control wells (containing cells with no compound added). Following compound addition, the plates were incubated for 4 hours in a humidified incubator (37° C., 5% CO2).
(§3) Following the 4 hour compound exposure, the 96-well plates were washed three times by aspirating media with an Immuno Washer (Nunc) and each well replaced with 150 μL of α-MEM+5% (v/v) FBS+1% (v/v) P/S. The plates were left in a humidified incubator (37° C., 5% CO2) for 5 days to enable cell growth. The cells in 96-well plates were fixed 5 days after compound exposure by adding 50 μL of a 40% (w/v) trichloroacetic acid (TCA) solution so as to obtain a final TCA concentration of 10% in each well. The plates were left in the refrigerator (4° C.) for 1 hour and subsequently rinsed 3 times in tap water. Any excess water was left to drain and the cells were stained with 50 μL of 0.4% (w/v) sulforhodamine B (SRB). The plates with the SRB stain were left in the dark for 30 minutes. Excess stain was removed from the wells by rinsing the plates 4 times in water containing 1% (v/v) acetic acid. The stain was solubilised by adding 100 μL of 10 mM unbuffered Tris (pH 10.5) to each well and the plates were left in a shaker in a dark environment at room temperature for at least 1 hour. The absorbance values of the wells were determined by an ELx 808 Absorbance Microplate Reader (Bio-Tek Instruments, Winooski, Vt., USA), with the wavelength of the measurement filter set at 490 nm and a reference filter set at 450 nm. The absorbance of the reference filter was subtracted from the measurement filter to obtain a final absorbance of λ490-450 nm. The absorbance data was analysed and IC50 values determined by the KC4 microplate data analysis software (KC4™ V3.4, Bio-Tek).
(§4) Anti-proliferative IC50 assays were repeated as described above including the addition of 3 μM SN34037, a selective and potent small molecule inhibitor of AKR1C3.

[2] = test system: HCT116 colon cancer cells engineered to over-express AKR1C3; assay: Anti-proliferative IC50 assay (SRB), HCT116 over-expressing AKR1C3; type: cell-based, human; conditions: for IC50 Ratio WT:AKR1C3: HCT116-WT vs HCT116-AKR1C3
Excerpt: as §1, §2, §3, §4

[3] = test system: wild-type SNU398 hepatocellular carcinoma cells; assay: Anti-proliferative IC50 assay, wild-type SNU398; type: cell-based; conditions: Homo sapiens
Experimental: as §2, §3, §4
(§5) Materials and methods used are as described for Example 9. […] This is a surprising finding and considerably greater than the approximately 77-fold, 270-fold and 400-fold increase in sensitivity observed for PR-104A, SN33540 and SN34454, respectively. In all cases, this increase in cytotoxicity resulting from expression of AKR1C3 can be substantially reversed by addition of an AKR1C3 inhibitor (SN34037), directly implicating metabolism of the prodrugs by AKR1C3 in the observed increase in cytotoxicity. As an important control, introduction of SN34037 had no anti-proliferative effects in wild-type SNU398 cells treated with compounds of the invention.

[4] = test system: SNU398 hepatocellular carcinoma cells engineered to over-express AKR1C3; assay: Anti-proliferative IC50 assay, SNU398 over-expressing AKR1C3; type: cell-based, human; conditions: for IC50: Homo sapiens
Experimental: as §2, §3, §4, §5

[5] = test system: wild-type H460 lung cancer cells; assay: Anti-proliferative IC50 assay, wild-type H460; type: cell-based, human; conditions: for IC50: Homo sapiens
Experimental: as §2, §3, §4
(§6) Materials and methods used are as described for Example 9.

[6] = test system: wild-type PLC/PRF/5 hepatocellular carcinoma cells; assay: Anti-proliferative IC50 assay, wild-type PLC/PRF/5; type: cell-based, human; conditions: Homo sapiens, PLC-PRF-5
Experimental: as §2, §3, §4, §6

AKR1C3 mixed MCLs = conditions: Silva, MSc Thesis; cited from earlier work
[7] = test system: mixed MCLs that only express 1% of the activating reductase E. coli NfsB; conditions: 1% NfsB-expressing cells; Singleton et al., 2007; cited from earlier work
[8] = test system: wild-type HCT116 colon cancer cells; assay: Anti-proliferative IC50 under oxic and anoxic conditions; type: cell-based, human; conditions: for IC50: Homo sapiens, HCT-116
Excerpt: PR-104A was initially designed and optimised as a hypoxia-selective cytotoxin (Patterson et al, Clinical Cancer Research, 2007, 13, 3922-3932). In the context of an AKR1C3-activated prodrug, this route of activation is considered off-mechanism and may potentially be undesirable, leading to off-target toxicities in a subject. Preferred compounds of the invention have been determined to be substantially resistant to hypoxia-dependent activation and cytotoxicity in wild-type HCT116 colon cancer cells. HCT116 cells were treated with compounds of the invention under either oxic or anoxic conditions and then their degree of anti-proliferative activity determined.
Selected compounds were evaluated for cytotoxic potential (IC50) under anoxic conditions. The same procedures as described above for Examples 9-11 were carried out in a Bactron anoxic chamber (Sheldon Manufacturing Inc) with internal 37° C. incubators where palladium catalyst scrubbed gas (90% N2, 5% H2, 5% CO2) ensured severe anoxia (<0.001% O2) in the whole chamber. All materials required (including cells) were taken into the chamber through two cycles of vacuum and gassing with 100% N2, followed by a single cycle with 5% CO2 and 5% hydrogen in nitrogen. All experimental materials were placed in the anoxic chamber at least 3 days prior to the day required for the experiment in order to remove any traces of residual O2. The medium used for the 96-well plates in the anoxic chamber consisted of α-MEM+10% (v/v) FBS+1% (v/v) additives (1 M β-D-Glucose and 20 mM 2′-Deoxycytidine).

[9] = SNU-398, read-out: SNU398-WT +AKR1C3 Inhibitor Anti-proliferative IC50
[10] = SNU-398, read-out: SNU398-WT Anti-proliferative IC50
[11] = SNU-398, read-out: SNU398-AKR1C3 +AKR1C3 Inhibitor Anti-proliferative IC50
[12] = SNU-398, read-out: SNU398-AKR1C3 Anti-proliferative IC50
[13] = NCI-H460, read-out: H460-WT +AKR1C3 Inhibitor Anti-proliferative IC50
[14] = NCI-H460, read-out: H460-WT Anti-proliferative IC50
[15] = read-out: PLC/PRF/5-WT Anti-proliferative IC50
[16] = with 3 μM SN34037, read-out: PLC/PRF/5-WT +AKR1C3 Inhibitor Anti-proliferative IC50

Question: Which melting point does the source give for `CS(=O)(=O)O.CS(=O)(=O)OCCN(CCOS(C)(=O)=O)c1ccc([N+](=O)[O-])cc1S(=O)(=O)N1CCNCC1` here?
Answer: The melting point was 147 to 149 °C.

Question: Which IC50 ([1]; Homo sapiens, HCT-116, read-out: HCT116-WT IC50) does the source give for `CN1CCN(S(=O)(=O)c2cc([N+](=O)[O-])ccc2N(CCBr)CCBr)CC1` [Compound 563, N,N-bis(2-bromoethyl)-2-((4-methylpiperazin-1-yl)sulfonyl)-4-nitroaniline] here?
Answer: Its IC50 is 7.34 µM.

Question: And the IC50 ([1]; read-out: HCT116-WT + AKR1C3 Inhibitor IC50, with 3 μM SN34037)?
Answer: The IC50 was 5.89 µM.

Question: What about the “more cytotoxic than SN34118 to AKR1C3-expressing HCT116 cells” value [2] of the same molecule?
Answer: Its value is 43 fold.

Question: And the “IC50 Ratio WT:AKR1C3” value [2]?
Answer: Its value is 816.

Question: And the IC50 ([2]; Homo sapiens, HCT-116, read-out: HCT116-AKR1C3 IC50)?
Answer: Its IC50 is 0.009 µM.

Question: And the IC50 ([2]; read-out: HCT116-AKR1C3 + AKR1C3 Inhibitor IC50, with 3 μM SN34037)?
Answer: Its IC50 is 3.26 µM.

Question: What about the IC50 [3, 9] of the same molecule?
Answer: The IC50 was 5.87 µM.

Question: What about the IC50 [3, 10] of the same molecule?
Answer: The IC50 was 6.93 µM.

Question: And the IC50 [4, 11]?
Answer: The IC50 was 4.19 µM.

Question: And the IC50 [4, 12]?
Answer: The IC50 was 0.015 µM.

Question: What about the “more cytotoxic in H460 cells than SN34118” value [5] of the same molecule?
Answer: Its value is 82 fold.

Question: And the IC50 [5, 13]?
Answer: The IC50 was 3.09 µM.

Question: What about the IC50 [5, 14] of the same molecule?
Answer: Its IC50 is 0.019 µM.

Question: And the IC50 [6, 15]?
Answer: The IC50 was 4.2 µM.

Question: What about the IC50 [6, 16] of the same molecule?
Answer: The IC50 was 21.5 µM.

Question: With `O=C(NCCO)c1cc([N+](=O)[O-])cc([N+](=O)[O-])c1N(CCBr)CCBr` [SN27686, reference compound] as the molecule, how does the IC50 ([1]; 4 hour exposure, 5 days growth, read-out: HCT116-WT IC50) read?
Answer: The IC50 was 42.6 µM.

Question: What about the IC50 ([2]; 4 hour exposure, 5 days growth, read-out: HCT116-AKR1C3 IC50) of the same molecule?
Answer: The IC50 was 1.46 µM.

Question: And the “IC50 Ratio WT:AKR1C3” value [2]?
Answer: The value was 29.

Question: What about the “BEE reported in AKR1C3 mixed MCLs” value (AKR1C3 mixed MCLs) of the same molecule?
Answer: Its value is 57.6%.

Question: What about the bystander effect [7] of the same molecule?
Answer: The bystander effect was 48%.

Question: Which results are given for `CN1CCN(C(=O)c2cc([N+](=O)[O-])cc([N+](=O)[O-])c2N(CCBr)CCOS(C)(=O)=O)CC1` [SN33540, reference compound]?
Answer: IC50 [3, 9]: 248 µM; IC50 [3, 10]: 231 µM; IC50 [4, 11]: 193 µM; IC50 [4, 12]: 0.844 µM; increase in sensitivity when SNU398 cells express AKR1C3 ([4]; SNU398-WT vs SNU398-AKR1C3): ~270 fold; IC50 [5, 13]: 97.7 µM; IC50 [5, 14]: 0.536 µM; IC50 [6, 15]: 83.9 µM; IC50 [6, 16]: 248 µM; IC50 ([8]; anoxic (<0.001% O2), read-out: HCT116-WT Anti-proliferative IC50 Anoxic): 5.1 µM; IC50 ([8]; read-out: HCT116-WT Anti-proliferative IC50 Oxic): 127 µM; Hypoxic Cytotoxicity Ratio (HCR) ([8]; oxic vs anoxic IC50, HCT116-WT): 25; BEE reported in AKR1C3 mixed MCLs (AKR1C3 mixed MCLs): 60%
